From patent US7056713B1, “Urate oxidase” (Duke University, priority 1998, dated 2006)
Values belong to the compound of their own block, whether it stands above or below them.

Experiments:
[1] = compared with uric acid; background statement; cited from earlier work
[2] = human, in vivo; cited from earlier work
[3] = system: recombinant pig-baboon chimeric uricase (PBC uricase; aa 1–225 of porcine uricase (SEQ ID NO:7) and aa 226–304 of baboon uricase (SEQ ID NO:6)), unmodified …; assay: KM of unmodified recombinant PBC uricase (studies not shown); assay type: biochemical, pig-baboon chimera
Protocol: (§1) In this PEGylation reaction all of the uricase subunits were modified (FIG. 1, lane 7). In studies not shown, the PEGylated enzyme had similar kinetic properties to unmodified PBC uricase (KM 10–20 μM). […] The PEGylated enzyme could also be lyophilized and then reconstituted in PBS, pH 7.2, with minimal loss of activity. In other experiments, we compared the activities of this preparation of PEG-PBC uricase with the A. flavus uricase clinical preparation. […] However, in PBS, pH 7.2, the PEG-PBC and unmodified fungal enzymes differed in uricase activity by <2 fold.

[4] = system: PEGylated recombinant pig-baboon chimeric uricase (PEG-PBC uricase; PBC uricase SEQ ID NO:2); assay: KM of PEGylated recombinant PBC uricase (studies not shown); assay type: biochemical, pig-baboon chimera; conditions: similar kinetic properties to unmodified
Protocol: 100 mg of concentrated Sepahacryl S-200 PBC uricase (5 mg/ml, 2.9 μmol enzyme; 84.1 μmol lysine) in 0.1 M Na2CO3, pH 10.2 was allowed to react with a 2-fold excess (mol of PEG:mol uricase lysines) of an activated form of PEG at 4° for 60 min. The PEGylated uricase was freed from any unreacted or hydrolyzed PEG by tangential flow diafiltration. In this step the reaction was diluted 1:10 in 0.1 M Na2CO3, pH 10.2 and diafiltered vs. 3.5 vol 0.1 M Na2CO3, pH 10.2, then vs. 3.5 vol 0.05 M sodium phosphate, 0.15 M NaCl, pH 7.2. The filter-sterilized enzyme was stable at 4° for at least one month.
In this PEGylation reaction all of the uricase subunits were modified (FIG. 1, lane 7). In studies not shown, the PEGylated enzyme had similar kinetic properties to unmodified PBC uricase (KM 10–20 μM). Importantly, the modified enzyme was much more soluble than the unmodified enzyme at physiologic pH (>5 mg/ml in PBS vs. <1 mg/ml). The PEGylated enzyme could also be lyophilized and then reconstituted in PBS, pH 7.2, with minimal loss of activity. In other experiments, we compared the activities of this preparation of PEG-PBC uricase with the A. flavus uricase clinical preparation. […] However, in PBS, pH 7.2, the PEG-PBC and unmodified fungal enzymes differed in uricase activity by <2 fold.

[5] = target: T1, Aspergillus flavus uricase, clinical preparation (unmodified fungal enzyme) (Aspergillus flavus, UniProt Q00511); assay: Kinetic comparison of A. flavus uricase clinical preparation with PEG-PBC uricase; assay type: biochemical; conditions: pH 8.6 in borate buffer; versus PEG-PBC uricase
T1 sequence (Q00511 2-302 limits assumed): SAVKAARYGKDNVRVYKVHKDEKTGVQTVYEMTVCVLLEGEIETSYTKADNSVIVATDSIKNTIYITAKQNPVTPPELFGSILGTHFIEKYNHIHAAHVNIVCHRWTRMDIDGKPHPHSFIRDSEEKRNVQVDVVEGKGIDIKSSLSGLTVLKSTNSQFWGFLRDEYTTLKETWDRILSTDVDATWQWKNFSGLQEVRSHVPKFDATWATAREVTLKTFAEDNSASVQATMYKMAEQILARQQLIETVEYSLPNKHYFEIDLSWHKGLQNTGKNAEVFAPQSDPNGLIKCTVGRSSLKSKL
Protocol: as §1

Structure (SMILES): NC(=O)NC1NC(=O)NC1=O (stereo not shown) [allantoin]
solubility relative to uric acid (times more soluble) [1]: 80–100 times

Structure (SMILES): Oc1ncnc2[nH]ncc12 [allopurinol]
patients who develop allergic reactions [2]: ~2%
severe hypersensitivity syndrome [2]: ~0.4%

Km [3]: 10 to 20 µM
Km [4]: 10 to 20 µM
KM, fold higher than PEG-PBC uricase [5]: 2 fold
Vmax, fold higher than PEG-PBC uricase [5]: 10–14 fold
Structure (SMILES): O=c1[nH]c(=O)c2[nH]c(=O)[nH]c2[nH]1 [uric acid]
